Test results as given in paper PMC4641920, “Structural Determinants for Substrate Binding and Catalysis in Triphosphate Tunnel Metalloenzymes” (The Journal of Biological Chemistry, 2015).

Key:
Vtc4p = molecular target: T1, Vtc4p (Saccharomyces cerevisiae, UniProt P47075); assay: polyP synthesis, urea PAGE with DAPI stain; assay type: biochemical; settings: 10 mM ATP, 1 mM MnCl2, pH 8.3, room temperature overnight
T1 construct: gene VTC4; probably the cytoplasmic tunnel domain of earlier work

mouse ThTPase [1] = molecular target: T2, mouse ThTPase (Mus musculus, UniProt Q8JZL3); assay: X-ray crystal structure of product complex (soak); assay type: binding; settings: pH 9.0, 0.2 M MgCl2 in crystallization buffer
T2 construct: gene Thtpa; full-length, codon-optimized synthetic gene; pMH-HT, His6 tag cleaved by TEV as for AtTTM3; expressed in E. coli
T2 sequence (Q8JZL3 1-224): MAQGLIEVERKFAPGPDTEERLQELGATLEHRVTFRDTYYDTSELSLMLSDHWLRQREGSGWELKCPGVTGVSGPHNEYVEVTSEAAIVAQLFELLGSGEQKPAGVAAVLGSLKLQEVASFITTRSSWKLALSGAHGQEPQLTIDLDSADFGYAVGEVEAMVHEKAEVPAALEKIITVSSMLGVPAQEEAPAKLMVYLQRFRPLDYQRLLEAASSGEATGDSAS

mouse ThTPase [2] = molecular target: T2, mouse ThTPase; assay: X-ray crystal structure of complex (soak); assay type: binding; settings: 10 mM MgCl2; low pH where activity is minimal (text: pH 6; methods: buffer pH 6.8); tunnel active site
ygiF = molecular target: T3, ygiF (Escherichia coli, UniProt P30871); assay: X-ray crystal structure of complex (soak); assay type: binding; settings: MgCl2 (5a60) or MnCl2 (5a61), 5 mM; tunnel active site
T3 construct: full-length, tunnel domain plus CHAD domain; pMH-HT, His6 tag cleaved by TEV as for AtTTM3; expressed in E. coli
T3 sequence (P30871 whole entry, the tested form may be a part): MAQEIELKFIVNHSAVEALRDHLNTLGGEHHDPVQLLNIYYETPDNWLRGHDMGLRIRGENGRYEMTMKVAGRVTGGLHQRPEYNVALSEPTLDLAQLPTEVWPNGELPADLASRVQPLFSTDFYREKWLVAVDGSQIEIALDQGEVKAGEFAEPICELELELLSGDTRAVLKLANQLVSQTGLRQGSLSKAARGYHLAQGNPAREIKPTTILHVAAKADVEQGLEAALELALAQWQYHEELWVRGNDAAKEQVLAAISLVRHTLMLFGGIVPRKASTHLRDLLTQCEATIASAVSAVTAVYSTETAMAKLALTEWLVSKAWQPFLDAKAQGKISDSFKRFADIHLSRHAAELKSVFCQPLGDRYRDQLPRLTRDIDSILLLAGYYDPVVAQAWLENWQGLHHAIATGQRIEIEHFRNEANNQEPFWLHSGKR

T1 sequence (P47075 189-480 limits assumed): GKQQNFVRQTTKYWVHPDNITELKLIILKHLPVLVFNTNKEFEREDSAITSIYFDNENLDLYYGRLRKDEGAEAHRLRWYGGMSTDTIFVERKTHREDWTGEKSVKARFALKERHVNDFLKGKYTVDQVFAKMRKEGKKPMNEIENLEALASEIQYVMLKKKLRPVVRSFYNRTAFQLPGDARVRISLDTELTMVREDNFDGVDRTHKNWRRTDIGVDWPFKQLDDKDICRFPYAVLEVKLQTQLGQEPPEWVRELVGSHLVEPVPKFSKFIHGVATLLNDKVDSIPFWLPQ

## Nc1ncnc2c1ncn2[C@@H]1O[C@H](COP(=O)(O)OP(=O)(O)OP(=O)(O)O)[C@@H](O)[C@H]1O [ATP]
Vtc4p
  polyP synthesis, urea PAGE with DAPI stain: only Vtc4p can generate inorganic polyphosphate from ATP

## Cc1ncc(C[n+]2csc(CCOP(=O)(O)OP(=O)(O)O)c2C)c(N)n1 [ThDP]
Mouse ThTPase [1]; tunnel active site, Pi also bound
  X-ray crystal structure of product complex (soak): with a ThDP molecule and an orthophosphate located in the tunnel center

## O=P(O)(O)O [orthophosphate]
Mouse ThTPase [1]; bound by Arg-125 near metal site 2, with ThDP
  X-ray crystal structure of product complex (soak): with a ThDP molecule and an orthophosphate located in the tunnel center

## Cc1ncc(C[n+]2csc(CCOP(=O)(O)OP(=O)(O)OP(=O)(O)O)c2C)c(N)n1 [thiamine triphosphate]
Mouse ThTPase [2]
  X-ray crystal structure of complex (soak): we found an intact ThTP molecule bound in the tunnel center of ThTPase

## O=P(O)(O)OP(=O)(O)OP(=O)(O)O [tripolyphosphate]
ygiF
  X-ray crystal structure of complex (soak): solved structures of ygiF in complex with PPPi and in the presence of either MgCl2
